Where a SMILES comes first, the peptide text is derived from it.
Legend:
Type in all cases: in vivo, mouse
[1] = system: layer 5 cortical neurons of MeCP2-/y mice; test: Whole-cell recordings of spontaneous EPSCs in acute brain slices (Example 10); settings: 20 mg/kg i.p. daily P15 to P28-P32; vs vehicle
Protocol: For the survival measurements, the nocturnal activity analysis and the immunoblot analysis, G-2-MePE (synthesised Albany Molecular Research Inc. (Albany, N.Y.) and supplied by Neuren Pharmaceuticals Limited) is administered daily via intra-peritoneal injections (20 mg/kg, vehicle=saline, 0.01% BSA). The treatment starts at P15 and is maintained throughout the course of the experiments. For intracellular physiology experiments, the mice are injected daily with G-2-MePE (20 mg/kg body weight, vehicle=saline, 0.01% BSA) for 2 weeks, from P15 to P28-P32 when they are used for acute slice preparation. For optical imaging experiments, mice are injected with G-2-MePE (20 mg/kg body weight, vehicle=saline, 0.01% BSA) daily from the day of the lid suture to the day of imaging. […]
Borosilicate pipettes (3-5 MΩ, WPI) are pulled using a Sutter P-80 puller (Sutter Instruments). Cells are visualized with an Achroplan 40× water-immersion lens with infrared-DIC optics (Zeiss) and detected with an infrared camera (Hamamatsu) projecting to a video monitor. […] Then in current clamp ˜10 pulses (500 ms, 40-140 pA at 10 pA increments), are applied to quantify evoked firing rates and cellular excitability. […] Analysis is performed using a custom software package written in Matlab, with all events detected according to automated thresholds and blindly verified for each event individually by the experimenter.

[2] = system: layer 5 pyramidal neurons of motor cortex, MeCP2 knockout; test: Golgi staining, cortical spine density (Example 10); settings: P28 mice; knockout with treatment
Protocol: Samples (<1 cm) from P28 mice are fixed in 10% formalin and 3% potassium bichromate for 24 hours. Tissue is then transferred into 2% silver nitrate for 2 days in the dark at room temperature. Sections from these samples are then cut at 50 μm thickness into distilled water. Sections corresponding to motor cortex are mounted onto slides, air dried for 10 minutes, and then dehydrated through sequential rinses of 95% alcohol, 100% alcohol, and xylene, and then sealed with a coverslip. Images re acquired at 10× (whole cell) and 100× (spine imaging) using a Zeiss Pascal 5 Exciter confocal microscope. We use Golgi staining to label neurons sparsely and distinctly, and applied high-resolution confocal imaging to measure dendritic spine density and morphology in the labelled cells, restricting analysis to layer 5 pyramidal neurons in sections of motor cortex from critical period mice (P28). While low-magnification imaging clearly delineates the extent of the dendrites of the pyramidal cells we use higher magnifications to count synaptic contacts and determine the morphological class of each spine. We classify spines as either large and bulbous (“mushroom”, M), short and stubby (“stubby”, S), short and thin (“thin”, T) or filopodia (F).

Akt = test: Western blot of phosphorylated Akt; settings: fmr1 KO; 100 mg/kg 4 weeks; p<0.05
Protocol: Phosphorylated Extracellular Signal-Regulated Protein Kinase (ERK) and Protein Kinase B (Akt) expression was measured by Western blot analysis in lymphocytes from fmr1 KO and wild-type animals administered ether vehicle or G-2MePE (100 mg/kg, i.p.; 28 days) treated in the behavior experiments as previously described (Lopez Verrilli et al. 2009). ERK is a classical MAPK signal transduction protein, responsible for growth factor transduction, proliferation, cytokine response to stress and apoptosis. […]
To conduct the western blots, antibodies were used against Akt ( 1/1000) (Cell Signaling), ERK1/2 ( 1/2000) (Cell Signaling), antiphospho-Akt ( 1/1000) and antiphospho-ERK ( 1/2000) (Cell Signaling). Total Akt and ERK 1/2 protein content (phosphorylated) were evaluated by blotting membranes with antiphospho-Akt ( 1/1000) and antiphospho-ERK antibodies ( 1/2000) (Cell Signaling). Akt or ERK phosphorylation was normalized to protein content in the same sample and expressed as % of change with respect to basal conditions, considering basal levels as 100%. Protein loading was evaluated by stripping and re-blotting membranes with b-actin antibody ( 1/1000) (Sigma Chemical Co.). […]

C[C@@]1(C(=O)N[C@@H](CCC(=O)O)C(=O)O)CCCN1C(=O)CN [Example G-2-MePE, Glycyl-L-2-methylprolyl-L-glutamic acid] (HELM PEPTIDE1{G.[C[C@@]1(C(=O)[*:2])CCCN1[*:1]].E}$$$$V2.0)
spontaneous EPSC amplitude [1]: significantly larger in amplitude | density of spines per unit branch [2]: largely ameliorated | Akt phosphorylation compared to total Akt (Akt): significant reduction in Akt phosphorylation

Source: patent US20150224164A1, “TREATMENT OF AUTISM SPECTRUM DISORDERS USING GLYCYL-L-2-METHYLPROLYL-L-GLUMATIC ACID” (Neuren Pharmaceuticals Limited, priority 2013, published 2015)
